Results taken from a melting point compilation (Tetko et al.; mined from patent text by program, amines drawn as free bases though some values may be those of a salt).

| Compound | melting point |
| --- | --- |
| CNC(=O)C(Cc1ccc(F)cc1)NC(=O)Nc1n[nH]c(=S)s1 (stereo not given) | 225 to 227 °C |
| CS(=O)(=O)Oc1ccc2c(c1)CN(C(=O)CCCCCN1CCN(c3cccc(C(F)(F)F)c3)CC1)C2 | 109 °C |
| CCOCc1nc2c(N)nc3ccc(NC(=O)C(C)C)cc3c2n1CC(C)(C)O | 259 to 261 °C |
| CCOC(=O)N1C(=O)N(C(=O)OCC)C2(C1=O)C(=O)N(Cc1ccc(Cl)c(Cl)c1)c1ccccc12 (stereo not given) | 180 to 182 °C |
| COc1ccc(NC(=S)C2CC2)cn1 | 79 to 83 °C |
| Nc1cc(C(F)(F)F)ccc1NC1CCCCC1 | 70 °C |
| C=CCN(c1ccc(OC)cc1)S(=O)(=O)c1c(F)c(F)c(F)c(F)c1F | 59 to 60 °C |
| O=C1c2ccccc2C(=O)N1CC(=O)N1c2ccccc2N(Cc2cccc3ccccc23)C(=O)[C@H]2CCC[C@H]21 (relative stereo) | 266 to 270 °C |
| O=C(Nc1ccc2oc(=O)[nH]c2c1)C(=O)N1CCC(Cc2ccc(F)cc2)CC1 | 226 to 231 °C |
| COc1cccc(Oc2cccc(-c3c(O)c4ccc(Cl)cc4[nH]c3=O)c2)c1 | 268 to 270 °C |
| c1coc(-c2nnc(Sc3cnccn3)o2)c1 | 92 to 93 °C |
| CCCc1cnc(-c2ccc(F)cc2)nc1 | 52.7 °C |
| N#Cc1cc(-c2nc3cncnc3[nH]2)ccc1Oc1ccc(F)cc1 | > 250 °C |
| Cc1cc(C)cc(N2C(=O)NC(C)(C3CC3)C2=O)c1 (stereo not given) | 121 °C |
| COc1ccccc1C1(O)C(O)CC(c2ccccc2)(c2ccccc2)C2CN(Cc3ccccc3)CC21 (stereo not given) | 236 °C |
| CCCCCCCCCCCCCCC(=O)Oc1ccc2cc(C(=N)N)ccc2c1 | 153 °C |
| CC(CN1CC=C(c2ccc(Cl)cc2)CC1)C(O)c1ccc(Cl)cc1 (stereo not given) | 110 to 112 °C |
| COc1ccc2c(c1OC)CC1C(=O)N(Cc3ccccc3)C(=O)C21 (stereo not given) | 130 to 132 °C |
| CCOC(=O)c1csc2nc(C(=O)OC)cn12 | 187 to 189 °C |
| CC(C)(C)c1cc(-c2ccc([N+](=O)[O-])cc2)cc(C(C)(C)C)c1O | 157 to 160 °C |
| CC1(C)CN(C2CC3(C)C(CCC4C3CCC3(C)C(C(=O)CO)CCC43)CC2O)CCO1 (stereo not given) | 184 to 186 °C |
| O=[N+]([O-])c1ccc(-c2cnc3nc(S(=O)(=O)Cl)nn3c2)cc1 | 159 to 167 °C |
| COc1cccc(OC)c1C(=O)C=Cc1ccccc1 | 123 to 124 °C |
| CCCc1cc2cc(OCC(=O)OCC)c(Cl)c(Cl)c2s1 | 62 to 63 °C |
| O=C(O)Cn1nnc(-c2ccc3c(c2)S(=O)(=O)c2ccccc2C3=O)n1 | 194 to 195 °C |

| Compound | melting point |
| --- | --- |
| O=c1[nH]c2ccccc2n1CCCN1CCN(C(c2ccc(F)cc2)c2ccc(F)cc2)CC1 | 197 °C |
| COC[C@H](Cc1ccccc1)Nc1nc(C)nc2c1nnn2-c1ccc(C(C)C)cc1Br | 67 to 69 °C |
| COc1ccc2cccc(C(CNC(=O)CF)COS(C)(=O)=O)c2c1 (stereo not given) | 122 to 124 °C |
| COc1cccc(C2C=C(C)NC(CN3C(=O)c4ccccc4C3=O)=C2)c1[N+](=O)[O-] (stereo not given) | 98 °C |
| COc1ccc2[nH]cc(CCCN(C3CCC3)C3COc4c(F)ccc(C(N)=O)c4C3)c2c1 (stereo not given) | 151 to 158 °C |
| CC(C)(C)OC(=O)[C@@H]1CCCN1C(=O)C=CC(F)(F)F | 119 to 120 °C |
| CC(C)(C)C(=O)Nc1ccncc1-c1noc2ccccc12 | 137 to 138 °C |
| CCc1nc2c(N)nc3cc(Br)ccc3c2n1CC1CCN(C(=O)OC(C)(C)C)CC1 | 131 to 132 °C |
| O=C(O)CS(=O)(=O)c1ccc2c(-c3ccccc3F)noc2c1Cl | 204 °C |
| CN1C(=O)C(NC(=O)NC23CC4CC(CC(C4)C2)C3)N=C(c2ccccc2)c2ccccc21 (stereo not given) | 264 to 265 °C |
| ClCc1ccc(CN=C(Nc2ccccc2-c2ccccc2)Nc2ccccc2-c2ccccc2)cc1 | 87 to 91.5 °C |
| O=C(CCl)Nc1c([N+](=O)[O-])cnn1-c1c(Cl)cc(C(F)(F)F)cc1Cl | 130 to 133 °C |
| Cn1nc(C(F)F)cc1O | 133 °C |
| O=C(/C=C/c1cccs1)Nc1ccc(-n2nc(C(F)(F)F)cc2C(F)(F)F)cc1 | 216 to 218 °C |
| COc1cc2c(Nc3cccc(C)c3)ncnc2cc1OCCN1CCOCC1 | 168 to 170 °C |
| Cc1snc(O)c1C#N | 205 °C |
| N#CCCNC(=O)c1cccc(-c2ccc3c(c2)C(Oc2ccc(Cl)cc2Cl)CCC3)c1 (stereo not given) | 150 to 151 °C |
| CNn1c(N(C)C)n[nH]c1=O | 129 °C |
| N#CC1=C(C2CCCN2)Nc2n[nH]cc2C1c1cccc2nonc12 (stereo not given) | > 240 °C |
| CNc1nc(CO)ccc1C | 87 °C |
| O=[N+]([O-])c1ccc(CN2CCC(c3cc(-c4ccc(Cl)cc4)[nH]n3)CC2)cc1 | 187 to 190 °C |
| CC(C)(C)NOC(=O)c1n[nH]c2c(=O)[nH]c3cc(Cl)ccc3c(=O)c12 | 258 °C |
| N#CCN1CC[C@@H](NCc2ccccc2)[C@H](O)C1 (relative stereo) | 113 °C |
| CCCC(CCC)N(C[C@H]1CC[C@H](CN(C(=O)Nc2ccc(N(C)C)cc2)C(CCC)CCC)CC1)C(=O)Nc1ccc(N(C)C)cc1 | 173 to 176 °C |
| C/C(=C\c1cccc2c1NCCNC2=O)CCCC(=O)O | 257 to 259 °C |

| Compound | melting point |
| --- | --- |
| C=CC(O)c1ccc([N+](=O)[O-])cc1 (stereo not given) | 55 °C |
| NCc1cc(Cl)c(N=C2NCCN2)c(Cl)c1 | 205 to 206 °C |
| COc1c(C)cc(N2CCN(S(=O)(=O)c3ccc(C)cc3)CC2)cc1C | 174 °C |
| C[Si](C)(C)C#Cc1ccc2c(c1)C(=O)N(c1ccc3c(c1)C=C3)C2=O | 192 to 193 °C |
| O=C(CCCl)c1ccc(O)c(Cl)c1Cl | 109 to 111 °C |
| O=c1c2c(CCc3ccccc3)n[nH]c2c2cccnc2n1-c1ccccc1 | 248 to 250 °C |
| COC(=O)Cc1ccc(C(=O)c2ccc(C)cc2)[nH]1 | 118 to 120 °C |
| O=C(O)COc1ccc(SCc2ccc(OCc3ccc(C(F)(F)F)cc3)cc2)c2c1CCC2 | 145 °C |
| O=C(O)CNC(COCc1cc(C(F)(F)F)cc(C(F)(F)F)c1)C(c1ccccc1)c1ccccc1 (stereo not given) | 116 to 119 °C |
| Fc1ccc2[nH]cc(CCCN3CCN(c4cccc(Cl)c4Cl)CC3)c2c1 | 147 to 148 °C |
| CC1(C)OC(c2ccc(S(C)(=O)=O)cc2)=C(c2ccc(S(C)(=O)=O)cc2)C1=O | 245 to 257 °C |
| O=C(O)c1cn(-c2ccc(F)cc2)c(C=Cc2ccncc2)cc1=O | 205 to 215 °C |
| Cc1cc2c(cc1C)N(C)c1cscc1C(=O)N2CCN(C)C | 119 to 120 °C |
| CCNC(=O)Nc1ccc2[nH]cc(C(=O)O)c(=O)c2c1 | > 320 °C |
| COc1cccc2c1OC(CN1CC=C(c3c[nH]c4ncccc34)CC1)CO2 (stereo not given) | 207 to 210 °C |
| COc1cc(OC)c(C(=O)Nc2cccc3c2CCN(C)C3)cc1OC | 159 to 160 °C |
| CCOC(=O)C1CC1C(=O)O (stereo not given) | 46 °C |
| COc1cc(OC)c(C(=O)C=CC(=O)O)cc1OC | 207 to 208 °C |
| CCCc1ccc2c(c1)N(c1ncnc3cc(OC)c(OC)cc13)CC2 | 140 to 141 °C |
| CC(=O)Oc1ccc2ncc3c(c2c1)CCCC3 | 118 to 119 °C |
| Cc1ccc(S(=O)(=O)N(C)c2ccc(Cl)cc2CO)cc1 | 130 to 132 °C |
| COC(=O)c1ccc(-c2nc(COc3ccc(CO)cc3OC)c(C)o2)cc1 | 170 to 171 °C |
| O=C(Nc1ccc(C(F)(F)F)cc1)Nc1nc(OCC(F)(F)F)cc(C(F)(F)F)n1 | 197 to 199 °C |
| CN(C)CCNC1=CC(=O)c2nc(-c3cc(F)ccc3F)oc2C1=O | 162 to 163 °C |
| NCC1Cc2cc(-c3ccccc3)cc(-c3ccc(F)cc3)c2O1 (stereo not given) | > 250 °C |

| Compound | melting point |
| --- | --- |
| COC(=O)c1cn(-c2ccc(O)cc2C)c(C2CCNCC2)cc1=O | 226 to 228 °C |
| CCN(CC)C(=O)c1ccc2ccccc2c1-c1ccccc1C | 150 to 152 °C |
| CCOC(=O)CN1CC(=O)N(C)c2ccc(NC(=O)NCc3ccccc3)cc2C1=O | 151 °C |
| O=C1c2c(O)cccc2OC12CC2 | 100 to 109 °C |
| O=Cc1cccn2cc(C(F)(F)F)nc12 | 98 to 100 °C |
| CC(=O)Oc1cc(OC(C)=O)cc(OC(C)=O)c1 | 105 to 106 °C |
| Cc1ccc(-c2ccc(/C=C/C(=O)O)o2)cc1 | 183 to 184 °C |
| CN1C=CC2=C(C=CCC2)CC1=O | 81 to 82 °C |
| COC(=O)Cc1ccc(OCCNC(=O)OCc2ccccc2)c(F)c1 | 44 to 45 °C |
| O=C(O)Cc1cccc(Oc2cccc(Cl)c2Cl)c1[N+](=O)[O-] | 178 to 183 °C |
| Cc1nc(N2CCN(Cc3ccc(F)cc3)C2=O)sc1C(=O)NCc1ccncc1 | 146 to 149 °C |
| CN(C)C=NS(=O)(=O)c1cc(C(=O)c2cc3c(c(Cl)c2Cl)OC(CO)C3)ccc1Cl (stereo not given) | 180 to 182 °C |
| CC1=C(C#N)C(c2ccccc2[N+](=O)[O-])C(C(=O)O)=C(C)N1 (stereo not given) | 225 °C |
| CC1(C)C(=O)Nc2ccc(C3=NNC(=O)C4CCC34)cc21 (stereo not given) | 315 to 317 °C |
| Cc1cc(OCC(=O)c2ccc(C(C)C)cc2)cc(C)c1C | 96 to 98 °C |
| O=C(Nc1cccc(Cl)c1)ONC1=Nc2ccc([N+](=O)[O-])cc2C(c2ccccc2Cl)=NC1 | 130 to 135 °C |
| COC(=O)[C@H](CO)NC(=O)c1ncn2c1CN(C)C(=O)c1c(Cl)cccc1-2 | 178 to 180 °C |
| O=C(c1cccnc1-c1ccncc1)N1CCC(O)(Cc2ccccc2)CC1 | 150 °C |
| CCCc1c(C(=O)NCc2ccc3cc(OCC(=O)OC)ccc3c2)cnn1-c1ccc(Cl)cc1 | 139 to 140 °C |
| COC(=O)CC[C@@H](NC(=O)[C@H](COCc1ccccc1)NC(=O)OC(C)(C)C)C(N)=O | 103 to 104 °C |
| CCCCCCCCCCCCS(=O)(=O)Nc1cc(-c2nc3cc(Cl)c(Cl)cc3[nH]2)ccc1OC | 203 to 204 °C |
| COc1ccc2nccc(C(O)CCC3CCNCC3)c2c1 (stereo not given) | 154 °C |
| CN1C(=O)N(CCCC(NS(=O)(=O)c2ccc(-c3ccc(Cl)cc3)cc2)C(=O)O)C(=O)C1(C)C (stereo not given) | 68 to 71 °C |
| CCCOc1ccc(/C=C/C(=O)OC(C)(C)C)cc1-c1nc2c(c(C)nn2CCC)c(=O)[nH]1 | 181 to 182 °C |
| O=c1nc(C2CC2)sc2ccccc12 | 120 °C |
